In patent US20230346831A1, “METHODS FOR TREATING […] USING LOW DOSE CARBON MONOXIDE” (priority 2020, published 2023):

Tests used:
[1] = test system: 8988T/TGL cells; assay: orthotopic (intrasplenic) model of liver metastasis of PDAC; type: in vivo; conditions: 8988T/TGL cells intrasplenic, NSG mice, 5 days a week
Method: NSG mice were generated by the Jackson Laboratory. All mice were housed in accordance with the institutional guidelines. […] Zhang, & Y. N. Du, Methods Mol Biol 1882, 309-320 (2019)). The spleen was removed after the injection. Starting one day after injection, mice were randomized into two groups. One group was kept in a regular mouse holding room (control), and the other group was put into a chamber delivering 250 ppm CO 3 hours daily. Mice were subjected to bioluminescent imaging using the In Vivo Imaging System Spectrum (PerkinElmer, Waltham, MA) at 0, 1, 3 days and then weekly after tumor cells were injected until the final time points, as described previously by Y. C. Du, D. S. Klimstra, & H. Varmus, PLoS One 4, e6932 (2009)). Luciferase signals were transformed to nature log scale before analysis. GEE method was used to test the overall difference of tumor growth over time. All analyses were performed in statistical software SAS Version 9.4 (SAS Institute, Cary, NC).
Mouse tissues were removed and fixed in 10% buffered formalin overnight at room temperature. […] Tumor number and tumor size were quantified by scanning the whole tissue slide of each mouse under microscope. The size of tumor area of each tumor was measured by the cellSens imaging software (Olympus, Tokyo, Japan). […]

[2] = test system: CYP1B1; assay: quantitative real-time reverse transcription PCR; type: cell-based, human; conditions: MCF7 and MDA-MB-231 cells; 250 ppm CO
Method: (§1) mRNA was isolated from cells (MCF7/TGL and MDA-MB-231/TGL) grown on 6-cm dishes using RNeasy mini kit (Qiagen, Hilden, Germany) containing gDNA Eliminator spin columns. cDNA was generated using the SuperScript III First-strand synthesis system with random hexamers (Invitrogen, Carlsbad, CA), and power SYBR green (Invitrogen, Carlsbad, CA)-based quantitative real-time PCR was performed using primer specific for HRG1 (human, forward: 5′- […] -3′ (SEQ ID NO: 1), reverse: 5′- […] -3′ (SEQ ID NO: 2)) or HCP1 (human forward: 5′- […] -3′ (SEQ ID NO: 3), reverse: 5′-[…] -3′ (SEQ ID NO: 4)), CYP1B1 (human, forward: 5′TGAGTGCCGTGTGTTTCGG -3′ (SEQ ID NO: 5), reverse: 5′-[…] -3′ (SEQ ID NO: 6)), SP1 (human, forward: 5′-GTGGCCGCTACCTTCACTG -3′ (SEQ ID NO: 7), reverse: 5′-GCCCCACTCCTACTTGGTC -3′ (SEQ ID NO: 8)) with the comparative CT method (ΔΔCT; ABI).
(§2) Heme is known to stimulate synthesis of many hemoproteins. Accordingly, hemoproteins whose expression was differentially regulated by low-dose CO in MCF7 and MDA-MB-231 cell lines were screened. CYP1B1, a heme-regulated protein, was identified as a top candidate in the list because of its following properties. First, CYP1B1 has been reported to induce the expression of SP1 transcription factor, and Sp1 interacts with Myc for synergistic transcriptional regulation for Myc target genes. […]

[3] = test system: SP1; assay: quantitative real-time reverse transcription PCR; type: cell-based, human; conditions: MCF7 and MDA-MB-231 cells; 250 ppm CO
Method: as §1, §2

[C-]#[O+] [CO, Carbon monoxide]
metastatic tumor numbers in liver sections (histological analysis) ([1]; 250 ppm CO 3 hours daily, 19 days after the injection): significantly less
bioluminescence over the time course, control vs CO group ([1]; 250 ppm CO gas 3 hours daily, P < 0.0001, GEE method): Significant difference
CYP1B1 mRNA levels [2]: significantly reduced
SP1 mRNA levels [3]: significantly reduced
